± gives the standard deviation of the reports.
Row | SMILES | glass transition temperature [°C]
1 | *CCN(*)CCOCCOC (repeat unit) | 16.00
2 | *CC(*)CCCCCCCCCCCC (repeat unit) | 10.00
3 | *c1ccc(N[Se]Nc2ccc(S(*)(=O)=O)cc2)cc1 (repeat unit) | 62.00
4 | *c1ccc2c(c1)C(=O)N(c1ccc(Oc3ccc(C(=O)c4cccc(C(=O)c5ccc(Oc6ccc(N7C(=O)c8ccc(C(*)(C(F)(F)F)C(F)(F)F)cc8C7=O)cc6)cc5)n4)cc3)cc1)C2=O (repeat unit) | 226.90
5 | *CC(*)(Cl)C(=O)OCC (repeat unit) [Poly(ethyl a-chloroacrylate) ] | 92 ± 4.8
6 | */C=C/C1CC(*)C(C#N)([Si](C)(C)[Si](C)(C)C)C1 (repeat unit) | 120.00
7 | *Oc1ccc(NC(=O)c2ccc(Oc3ccc(C(=O)Nc4ccc(*)cc4)cc3)cc2)cc1 (repeat unit) | 274.00
8 | *c1ccc(Oc2cc(C(C)(C)C)ccc2Oc2ccc(N3C(=O)c4ccc(-c5ccc6c(c5)C(=O)N(*)C6=O)cc4C3=O)cc2)cc1 (repeat unit) | 257.00
9 | *Oc1ccc(NC(=O)CCCCCCC(=O)Nc2ccc(*)cc2)cc1 (repeat unit) | 180.00
10 | *CCNC(=O)CCCCC(=O)N* (repeat unit) | 71.00
11 | *CC(*)c1ccc(Cl)cc1Cl (repeat unit) [Poly(2,4-dichloro styrene) ] | 133 ± 2.6
12 | *CCCP(CCCNC(=O)CCCCC(=O)N*)c1ccccc1 (repeat unit) | 49.00
13 | *c1ccc(Oc2ccc(Oc3ccc(Oc4ccc(N5C(=O)c6ccc(Oc7ccc(-c8ccc(Oc9ccc%10c(c9)C(=O)N(*)C%10=O)cc8)cc7)cc6C5=O)cc4)cc3)cc2)cc1 (repeat unit) | 208.00
14 | *Oc1ccc(-c2ccc(OC(=O)c3ccc(Oc4ccc(C5(c6ccc(Oc7ccc(C(*)=O)cc7)cc6)CCC(C(C)(C)C)CC5)cc4)cc3)cc2C)c(C)c1 (repeat unit) | 163.00
15 | *CC(CO*)(CSCC)CSCC (repeat unit) | -32.00
16 | *C(=O)NCCNC(=O)c1ccc(N2C(=O)c3ccc(*)cc3C2=O)cc1 (repeat unit) | 235.00
17 | *CCCCCCOC(=O)C(CCCCP(=O)(OCC)OCC)C(=O)OCCCCCCOc1ccc(-n2on2-c2ccc(O*)cc2)cc1 (repeat unit) | 4.00
18 | *O[Si](O[Si](C)(C)c1ccc([Si](*)(C)C)cc1)(c1ccccc1)c1ccccc1 (repeat unit) | 0.00
19 | *Oc1ccc(C2(c3ccc(OC(=O)c4cccc(C(*)=O)c4)cc3)CCC3CCCCC3C2)cc1 (repeat unit) | 248.00
20 | *CC(*)(C)C(=O)OCC#CO[Si](C)(C)C (repeat unit) | 57.00
21 | *CCCCCCCCCCNC(=O)CCCCCCCCCCCCCCC(=O)N* (repeat unit) | 45.00
22 | *CCOCC(=O)O* (repeat unit) | -12.60
23 | *C(=O)c1ccc2c(c1)C(=O)N(c1cccc(C(=O)c3c(C)cc(C)c(N4C(=O)c5ccc(*)cc5C4=O)c3C)c1)C2=O (repeat unit) | 300.00
24 | *c1ccc(Cc2ccc(N3C(=O)c4ccc([Si](C)(C)c5ccc([Si](C)(C)c6ccc7c(c6)C(=O)N(*)C7=O)cc5)cc4C3=O)cc2)cc1 (repeat unit) | 295.00
25 | *Oc1c(-c2ccccc2)cc(*)cc1-c1cccc(-c2ccccc2)c1-c1ccccc1 (repeat unit) | 212.00
26 | *CC(*)(Cl)C(=O)OCCCC (repeat unit) | 42.00

Second part, the molecule after the results:

Row | glass transition temperature [°C] | SMILES
27 | 213.00 | *Oc1cccc(Oc2ccc(NC(=O)c3ccc(-c4ccc(C(=O)Nc5ccc(*)cc5)c(C)c4)cc3C)cc2)c1 (repeat unit)
28 | 279.00 | *c1ccc(N(c2ccc(C#N)cc2)c2ccc(N3C(=O)c4ccc(Oc5ccc(C6(c7ccc(Oc8ccc9c(c8)C(=O)N(*)C9=O)cc7)c7ccccc7-c7ccccc76)cc5)cc4C3=O)cc2)cc1 (repeat unit)
29 | 293.00 ± 4.9 | *C(=O)c1ccc2c(c1)C(=O)N(c1ccc(C(=O)c3ccc(N4C(=O)c5ccc(*)cc5C4=O)cc3)cc1)C2=O (repeat unit)
30 | 305.00 | *c1ccc(C(c2ccc(N3C(=O)c4ccc(Oc5ccc6c(c5)C(=O)N(*)C6=O)cc4C3=O)cc2)(C(F)(F)F)C(F)(F)F)cc1 (repeat unit)
31 | 191.00 | *Oc1ccc2ccc(Oc3ccc(C(=O)Nc4ccc(Oc5ccc(Oc6ccc(NC(=O)c7ccc(*)cc7)cc6)cc5)cc4)cc3)cc2c1 (repeat unit)
32 | 240.00 | *c1ccc(OCCCCOc2ccc(-c3nc4ccc(-c5ccc6nc(*)c(-c7ccccc7)nc6c5)cc4nc3-c3ccccc3)cc2)cc1 (repeat unit)
33 | 235.50 | *Oc1ccc(C2(c3ccc(OC(*)=O)cc3)CC(C)CC(C)(C)C2)cc1 (repeat unit)
34 | 215.00 | *c1cccc(NC(=O)c2ccc(OCCOCCOc3ccc(C(=O)Nc4ccc5[nH]c(*)nc5c4)cc3)cc2)c1 (repeat unit)
35 | -22.50 | *CCCCCCCCCCOC(=O)c1cccc(C(=O)O*)c1 (repeat unit)
36 | 106.20 | *c1ccc(-c2ccc3c(c2)C(CCCCCC)(CCCCCC)c2cc(*)ccc2-3)cc1 (repeat unit)
37 | 114.00 | *c1ccc2c(c1)C(CCCCCC)(CCCCCC)c1cc(-c3ccc4c(c3)C(CC3=NC(Cc5ccccc5)CO3)(CC3=NC(Cc5ccccc5)CO3)c3cc(*)ccc3-4)ccc1-2 (repeat unit)
38 | 305.00 | *c1ccc(Oc2ccc(-c3cc(-c4ccccc4)c4cc(-c5ccc6nc(*)cc(-c7ccccc7)c6c5)ccc4n3)cc2)cc1 (repeat unit)
39 | 222.00 | *c1ccc(C(c2ccc(C(=O)OC)cc2)c2ccc(N(*)c3ccc(C)cc3)cc2)cc1 (repeat unit)
40 | 218.00 | *Oc1cccc2ccc(Oc3ccc(NC(=O)c4ccc(Oc5ccc(S(=O)(=O)c6ccc(Oc7ccc(C(=O)Nc8ccc(*)cc8)cc7)cc6)cc5)cc4)cc3)cc12 (repeat unit)
41 | 313.00 | *c1ccc(Oc2ccccc2Oc2ccc(-n3c(=O)c4cc5c(=O)n(*)c(=O)c5cc4c3=O)cc2)cc1 (repeat unit)
42 | 376.00 | *c1ccc(-c2cnc3ccc(-c4ccc5ncc(*)nc5c4)cc3n2)cc1 (repeat unit)
43 | 80.00 | *CCCCCCOc1ccc(/C=C2\CCC/C(=C\c3ccc(O*)c(OC)c3)C2=O)cc1OC (repeat unit)
44 | 110.00 | *Nc1cccc(NC(=O)CCCCCCCCC(*)=O)c1 (repeat unit)
45 | 195.00 | *Nc1ccc(Cc2ccc(NC(=O)c3cc(NC(=O)CCCCCN4C(=O)c5ccccc5C4=O)cc(C(*)=O)c3)cc2)cc1 (repeat unit)

Row | glass transition temperature [°C] | SMILES
46 | -106.00 | *O[Si](C)(C)O[Si](C)(C)O[Si](C)(C)O[Si](C)(C)O[Si](C)(C)OC(C)CCC(*)C (repeat unit)
47 | 142.00 | *OS(=O)(=O)c1cc(S(=O)(=O)Oc2ccc(C3(c4ccc(*)cc4)CCCCC3)cc2)ccc1C (repeat unit)
48 | 74.00 | *c1ccc(/C=C/c2cc(OCCCCCCCC)c(/C=C/c3ccc(N(*)c4ccccc4)cc3)cc2OCCCCCCCC)cc1 (repeat unit)
49 | 199.00 | *CC(*)(C)C(=O)OC1CC2CC1C1C3CCC(C3)C21 (repeat unit)
50 | 280.00 | *c1ccc(C(=O)Nc2ccc(Oc3ccc(NC(=O)c4ccc(Oc5ccc(-c6nn(*)c(=O)c7ccccc67)cc5)cc4)cc3)cc2)cc1 (repeat unit)
51 | 4.20 | *[O][Zn][O]C(=O)c1ccccc1C(=O)OCCCCCOC(=O)Nc1cc(NC(=O)OCCCCCOC(=O)c2ccccc2C(*)=O)ccc1C (repeat unit)
52 | 140.00 | *Oc1ccc(C(C)(C)c2ccc(OC(=O)c3ccc(C(*)=O)cc3)c(C(C)C)c2)cc1C(C)C (repeat unit)
53 | 331.00 | *c1ccc2c(c1)C(=O)N(c1ccc(S(=O)(=O)c3ccc(S(=O)(=O)c4ccc(N5C(=O)c6ccc(C(*)(C(F)(F)F)C(F)(F)F)cc6C5=O)cc4)cc3)cc1)C2=O (repeat unit)
54 | 177.00 | *Nc1cc(NC(=O)c2cc(OCCN(C)c3ccc([N+](=O)[O-])cc3)cc(C(*)=O)c2)cc(C(=O)OC)c1 (repeat unit)
55 | 265.40 | *C(=O)c1ccc2c(c1)C(=O)N(c1cc(Oc3c(C)cc(-c4cc(C)c(Oc5cc(N6C(=O)c7ccc(*)cc7C6=O)cc(C(F)(F)F)c5)c(C)c4)cc3C)cc(C(F)(F)F)c1)C2=O (repeat unit)
56 | 34.00 | *OCCOC(=O)CCCCC(=O)OCCOc1nc(-c2ccc(OCCCC)cc2)nc(*)c1-c1ccc(OC)cc1 (repeat unit)
57 | 163.00 | *Oc1ccc(S(=O)(=O)c2ccc(Oc3c(C)cc(C(c4cc(C)c(*)c(C)c4)(C(F)(F)F)C(F)(F)F)cc3C)cc2C(OC)(C(F)(F)F)C(F)(F)F)c(C(OC)(C(F)(F)F)C(F)(F)F)c1 (repeat unit)
58 | 251.00 | *Oc1ccc(Oc2ccc(NC(=O)c3cc(NC(=O)c4ccc(OC(C)=O)cc4)cc(C(=O)Nc4ccc(*)cc4)c3)cc2)cc1 (repeat unit)
59 | 75.00 | *c1ccc(-n2ccc(-c3cccc(-c4ccn(*)n4)c3)n2)cc1 (repeat unit)
60 | 35.00 | *CC(*)(C)C(=O)OCCCCCCCCOc1ccc(/N=N/c2ccc(C#N)cc2)cc1 (repeat unit)
61 | 23.00 | *Oc1ccccc1C(=O)OC(=O)c1ccccc1OC(=O)C(CC)C(CC)C(*)=O (repeat unit)
62 | 147.00 | *Oc1ccc(C(C)(C)c2ccc(OC(*)=O)c(Cl)c2)cc1Cl (repeat unit)
63 | 160.00 | *Oc1ccc(C(C)(C)c2ccc(OC(=O)c3ccc(C(*)=O)cc3)c(CCCC)c2)cc1CCCC (repeat unit)
64 | 168.00 | *Oc1cccc(NC(=O)c2ccc(Oc3ccc(C(C)(C)c4ccc(C(C)(C)c5ccc(Oc6ccc(C(=O)Nc7ccc(*)cc7)cc6)cc5)cc4)cc3)cc2)c1 (repeat unit)

Reference: the PolyMetriX glass transition set
